The source of these data is patent EP0110570A2, “Triazole antifungal agents” (Pfizer Limited, priority 1982, dated 1984).

This assay relates to Candida albicans. The assay is described as follows: In vivo protection of mice inoculated with Candida albicans (PD50). The settings on record: read-out: PD50. Here is the method: The in vivo evaluation of the compounds can be carried out at a series of dose levels by intraperitoneal or intravenous injection or by oral administration, to mice which are inoculated with a strain of Candida albicans. Activity is based on the survival of a treated group of mice after the death of an untreated group of mice following 48 hours observation. The dose level at which the compound provides 50% protection against the lethal effect of the infection (PD50) is noted.
Using the test method described previously in the text, the following PD50 values (mg./kg.) were obtained in mice infected with Candida albicans:-

Where [1] appears, read: mice infected with Candida albicans, dose level giving 50% protection against the lethal effect of the infection, survival after 48 hours observation, route not specified (intraperitoneal, intravenous or oral).

Like-named read-outs stand apart in the source and are kept apart here.

As to `Fc1ccc(C(Cl)(Cn2cncn2)C(F)(F)F)c(F)c1` (centres unmarked) [Example 1, 1-[2-chloro-2-(2,4-difluorophenyl)-3,3,3-trifluoropropyl]-1H-1,2,4-triazole], the ED50 under setting [1] turned out to be 0.15 mg/kg. On the same count and under the same terms, as for `FC(F)(F)C(Cl)(Cn1cncn1)c1ccc(Cl)cc1` (centres unmarked) [Example 2], the figure is 0.6 mg/kg; as for `Fc1ccc(C(Cl)(Cn2cncn2)C(F)(F)F)cc1` (centres unmarked) [Example 3], 0.6 mg/kg. Take `Fc1ccc(C(Cl)(Cn2cncn2)C(F)(F)C(F)(F)F)cc1` (centres unmarked) [Example 4]: under setting [1], the ED50 is < 1 mg/kg.

For the molecule `Fc1ccc(C(Cl)(Cn2cncn2)C(F)(F)C(F)(F)C(F)(F)F)c(F)c1` (centres unmarked) [Example 5], for the setting “Candida albicans, 48 h”, the ED50 is < 1 mg/kg.
